Results taken from ChEMBL document CHEMBL3045506, “Spore Germination Self-Inhibitors from Plant Pathogenic Fungi” (1997).
In brackets after ≈: the same amount, converted by molar mass.

What was measured:
Assay type in all cases: functional
[1] = system: Puccinia graminis f. sp. tritici; assay: Antifungal activity against Puccinia graminis f. sp. tritici assessed as inhibition of uredospore germination after 48 hr by microscope-slide assay
[2] = system: Puccinia coronata; assay: Antifungal activity against Puccinia coronata assessed as inhibition of uredospore germination after 48 hr by microscope-slide assay
[3] = system: Colletotrichum gloeosporioides; assay: Antifungal activity against Colletotrichum gloeosporioides f. sp. jussiaea assessed as conidial germination at 30 ppm after 48 hr by microscopic analysis
[4] = system: Colletotrichum gloeosporioides; assay: Antifungal activity against Colletotrichum gloeosporioides f. sp. jussiaea assessed as conidial germination at 100 ppm after 48 hr by microscopic analysis
[5] = system: Colletotrichum gloeosporioides; assay: Antifungal activity against Colletotrichum gloeosporioides f. sp. jussiaea assessed as conidial germination at 10 ppm after 48 hr by microscopic analysis
[6] = system: Colletotrichum gloeosporioides; assay: Antifungal activity against Colletotrichum gloeosporioides f. sp. jussiaea assessed as conidial germination at 3 ppm after 48 hr by microscopic analysis

Compound | ED50 [1] [pg/mL] | ED50 [2] [pg/mL] | Activity [3] [%] | Activity [4] [%] | Activity [5] [%] | Activity [6] [%]
COC(=O)C(=Cc1ccc(O)c(OC)c1)C(=O)OC | 270 (≈ 1.01 nM) | 6800 (≈ 25.5 nM) |  |  |  | 
C/C=C1/C(=O)Nc2ccccc21 |  |  | 0 | 0 | 0 | 40
C/C=C1\C(=O)Nc2ccccc21 |  |  | 0 | 0 | 0 | 68
CCCCC[C@H]1CCCCC[C@H]2CC(=O)[C@@H](CCC(=O)O1)O2.NN [7-EPIGLOEOSPORONE] |  |  | 82 | 45 |  | 
CCCCC[C@@H]1CCCCC[C@@H]2CC(=O)[C@H](CCC(=O)O1)O2.NN [13-EPIGLOEOSPORONE] |  |  | 81 | 48 |  | 
CCCCC[C@H]1CCCCC[C@H]2CC(=O)[C@@H](CCC(=O)O1)O2 [(+)-GLOEOSPORONE] |  |  | 81 | 44 |  | 
CCCCC[C@@H]1CCCCC[C@@H]2CC(=O)[C@H](CCC(=O)O1)O2 [(-)-GLOEOSPORONE] |  |  | 82 | 49 |  | 
COC(=O)C(=Cc1ccc(OC)c(OC)c1)C(=O)OC [METHYL 3,4-DIMETHOXYBENZALMALONATE] | 4160 (≈ 14.8 nM) | 25 (≈ 0.0892 nM) |  |  |  | 
COC(=O)/C=C\c1ccc(OC)c(OC)c1 [METHYL CIS-3,4-DIMETHOXYCINNAMATE] | 3680 (≈ 16.6 nM) | 13 (≈ 0.0585 nM) |  |  |  | 
COC(=O)/C=C\c1ccc(O)c(OC)c1 [METHYL CIS-FERULATE] | 180 (≈ 0.864 nM) | 5570 (≈ 26.8 nM) |  |  |  | 
